# Marks after values point to notes of the source that are not given here.
# What was measured:
# [1] = Dissolution of test material in saline; type: physicochemical; conditions: mirodenafil 2HCl
# Method: The mirodenafil (mirodenafil 2HCl; SK Chemical Life Science Business, KR) was used in this experiment. […] Mirodenafil was stored at 4° C. in a refrigerator to protect from light and humidity until used. Three different dosages, 0.5, 1 and 2 mg/kg of mirodenafil were directly dissolved in saline and subcutaneously administered in a volume of 1 ml/kg on the dorsal back skins, once a day for 28 days from 24 hrs after stabilization periods from operation. In saline and neuron apoptosis control rats, equal volumes of saline as vehicle were administered, instead of mirodenafil, respectively.
# The mirodenafil (mirodenafil 2HCl; SK Chemical Life Science Business, KR) was used in this experiment. […] Mirodenafil was stored at 4° C. in a refrigerator to protect from light and humidity until used. Mirodenafil were directly dissolved in saline as 1 mg/ml concentrations, and subcutaneously administered in a volume of 1 ml/kg on the dorsal back skins from 24, 72 and 168 hrs after neuron apoptosis, once a day for 14 days, respectively. In saline and neuron apoptosis control rats, equal volumes of saline as vehicle were administered, instead of mirodenafil from 24 hrs after neuron apoptosis for 20 days, respectively.
# [2] = tested on: neuron apoptosis-operated rats; assay: Example 2 forelimb placing test; type: in vivo, Sprague-Dawley (SD) rats
# Method: Sensorimotor function was evaluated by use of limb placing (de Ryck M et al., Stroke. 20:1383-90(1989)) and body swing (Borlongan and Sanberg, J Neurosci. 15:5372-8(1995)) tests. These tests were performed at 1 and 28 days after neuron apoptosis. The investigator performing the surgery and behavioral assessments was blinded to treatment assignment.
# Limb placing test: Forelimb and hindlimb placement were assessed independently. For the forelimb placing test, the rats were held by their torso with their forepaws hanging free and moved slowly toward the edge of a tabletop, stopping short of touching the vibrissae (for vision-induced placing), touching the vibrissae (for vibrissae-induced placing), making light contact with the front of the forepaw to the edge of the tabletop (for tactile-induced placing), and pressing the forepaws to the edge of the table with increased pressure (for proprioceptive-induced placing). Hindlimb placing was conducted in the same manner as above but with tactile and proprioceptive stimulation applied to the front/top of each hindlimb. Each limb for placing in response to visual, vibrissae, tactile, and proprioceptive stimulation are scored in the following manner: normal performance=0 points; performance with unilateral limb=1 point; performance with a delay (2 seconds) and/or incomplete=2 point; no performance=3 points. A total of 12 points in forelimb placing test and 6 points in hindlimb placing test means maximal neurological deficit, and 0 points means normal performance.
# All data were expressed as mean±standard deviation (S.D.) of ten rats. Multiple comparison tests for different dose groups were conducted. Variance homogeneity was examined using the Levene test (Levene A, Clin Otalary, 1981; 6:145-51). […] In addition, the percent changes as compared with neuron apoptosis control and mirodenafil treated rats were calculated to help the understanding of the efficacy of test substances as follow Equation 6 and 7. […]
# caspase-3 = assay: Example 2 immunohistochemistry: caspase-3-immunoreactive cells; type: in vivo, Sprague-Dawley (SD) rats; conditions: for Numbers of neurons: Caspase-3+: 1 mg/kg s.c. once a day for 14 days, 29 days after neuron apoptosis
# Method: The induction of neuron apoptosis was carried out by damaging the right hemisphere of the brain of animals. Specifically, animals were anesthetized with 2 or 3% isoflurane in the mixture of 70% N2O and 28.5% O2, and were maintained with 1 to 1.5% isoflurane in the mixture of 70% N2O and 28.5% O2. After that the temporalis muscle was bisected and reflected through an incision made midway between the eye and the eardrum canal. The proximal MCA was exposed through a subtemporal craniectomy by microdental drills without removing the zygomatic arch and without transecting the facial nerve. […] Mortality was less than 5%. For sham control, all procedures were performed in the same way, with the exception of the occlusion of the MCA.
# After deparaffinized of prepared […] histological paraffin sections, citrate buffer antigen (epitope) retrieval pretreatment were conducted as previously (Shi S R et al., J Histochem Cytochem. 41:1599-604(1993)). Briefly, pre-heat water bath with staining dish containing 10 mM citrate buffers (pH 6.0) until temperature reaches 95-100° C. Immerse slides in the staining dish and place the lid loosely on the staining dish. Incubate for 20 minutes and turn off the water bath. Place the staining dish at room temperature and allow the slides to cool for 20 minutes. After epitope retrievals, sections were immunostained using avidin-biotin complex (ABC) methods for caspase-3 and PARP. Endogenous peroxidase activity was blocked by incubated in methanol and 0.3% H2O2 for 30 minutes, and non-specific binding of immunoglobulin was blocked with normal horse serum blocking solution (Vector Lab., Burlingame, Calif., USA. Dilution 1:100) for 1 hr in humidity chamber. Primary antiserum were treated for overnight at 4° C. in humidity chamber, and then incubated with biotinylated universal secondary antibody (Vector Lab., Dilution 1:50) and ABC reagents (Vectastain Elite ABC Kit, Vector Lab., Dilution 1:50) for 1 hr at room temperature in humidity chamber. Finally, reacted with peroxidae substrate kit (Vector Lab.) for 3 min at room temperature. All sections were rinse in 0.01M PBS for 3 times, between steps. The neurons occupied by over 10% of immunoreactivities, the density, of each antiserum for caspase-3 and PARP were regarded as positive, and the mean numbers of caspase-3 and PARPimmunoreactive cells dispersed in the mm^2 of ipsilateral peri-infarct/defect cerebral cortex were counted using an automated image analysis process as establish methods (Lee et al., 2010; Song et al., 2012), respectively. The histopathologist was blinded to the group distribution when performing the analysis.
# (§1) All data were expressed as mean±standard deviation (S.D.) of ten rats. Multiple comparison tests for different dose groups were conducted. Variance homogeneity was examined using the Levene test (Levene A, Clin Otalary, 1981; 6:145-51). […] Statistical analyses were conducted using SPSS for Windows (Release 14K, SPSS Inc., USA; Ludbrook, Clin Exp Pharmacol Physiol, 1997; 24:294-6). In addition, the percent changes as compared with neuron apoptosis control and mirodenafil treated rats were calculated to help the understanding of the efficacy of test substances as follow Equation 6 and 7. Percentage Changes as Compared with Sham Control (%)=[((Data of neuron apoptosis control−Data of sham control rat)/Data of sham control rats)×100] [EQUATION 6] Percentage Changes as Compared with neuron apoptosis Control (%)=[((Data of test material treated rats−Data of neuron apoptosis control rats)/Data of neuron apoptosis control rats)×100] [EQUATION 7]
# [3] = Example 2 body weight measurements; type: in vivo, Sprague-Dawley (SD) rats; conditions: for Body weights at 29 days after surgery [B] / Weight gains [B − A]: 1 mg/kg s.c. once a day for 14 days; for Body weights at Before surgery / Body weights at surgery [A]: before treatment
# Method: Changes of body weight were measured at 1 day before neuron apoptosis, the day of neuron apoptosis, 1, 3, 7, 14, 21, 28 and 29 days after neuron apoptosis. […] Body weight gains (g) during 29 days after neuron apoptosis=(Body weight at the 29 days after neuron apoptosis−body weight at the day of neuron apoptosis) [EQUATION 5]
# as §1
# [4] = 1 mg/kg from 24 hrs after surgery
# [5] = 1 mg/kg from 72 hrs after surgery
# [6] = 1 mg/kg from 168 hrs after surgery
smiles,measurement,setting,value
"CCCOc1ccc(S(=O)(=O)N2CCN(CCO)CC2)cc1-c1nc2c(CCC)cn(CC)c2c(=O)[nH]1 [Mirodenafil, mirodenafil]",solubility in saline,[1],well dissolved in saline
same,"forelimb placing test scores at 28 days, change as compared with neuron apoptosis control",[2]; [4],−57.41%
same,"forelimb placing test scores at 28 days, change as compared with neuron apoptosis control",[2]; [5],−29.63%
same,"forelimb placing test scores at 28 days, change as compared with neuron apoptosis control",[2]; [6],−11.11%
same,"numbers of caspase-3-immunoreactive neurons at 29 days, change as compared with neuron apoptosis control",caspase-3; [4],−57.29%
same,"numbers of caspase-3-immunoreactive neurons at 29 days, change as compared with neuron apoptosis control",caspase-3; [5],−40.63%
same,"numbers of caspase-3-immunoreactive neurons at 29 days, change as compared with neuron apoptosis control",caspase-3; [6],−15.57%
same,Numbers of neurons: Caspase-3+,caspase-3; start 24 hrs after operation,30.01 ± 4.90^ab cells/mm^2 of cerebral cortex
same,Numbers of neurons: Caspase-3+,caspase-3; start 72 hrs after operation,41.71 ± 6.34^ab cells/mm^2 of cerebral cortex
same,Numbers of neurons: Caspase-3+,caspase-3; start 168 hrs after operation,59.33 ± 5.13^a cells/mm^2 of cerebral cortex
same,"body weight gains during 29 days, change as compared with neuron apoptosis control",[3]; [4],43.24%
same,"body weight gains during 29 days, change as compared with neuron apoptosis control",[3]; [5],33.78%
same,"body weight gains during 29 days, change as compared with neuron apoptosis control",[3]; [6],11.04%
same,Body weights at 29 days after surgery [B],[3]; start 24 hrs after operation,357.13 ± 15.38^ab g
same,Weight gains [B − A],[3]; start 24 hrs after operation,79.50 ± 14.09^ab g
same,Body weights at 29 days after surgery [B],[3]; start 72 hrs after operation,349.38 ± 10.28^ac g
same,Weight gains [B − A],[3]; start 72 hrs after operation,74.25 ± 14.95^ab g
same,Body weights at 29 days after surgery [B],[3]; start 168 hrs after operation,338.63 ± 15.26^a g
same,Weight gains [B − A],[3]; start 168 hrs after operation,61.63 ± 6.78^a g
same,Body weights at Before surgery,[3]; 1 mg/kg start 24 hrs group,307.75 ± 15.84 g
same,Body weights at surgery [A],[3]; 1 mg/kg start 24 hrs group,277.63 ± 15.07 g
same,Body weights at Before surgery,[3]; 1 mg/kg start 72 hrs group,307.25 ± 11.36 g
same,Body weights at surgery [A],[3]; 1 mg/kg start 72 hrs group,275.13 ± 12.21 g
same,Body weights at Before surgery,[3]; 1 mg/kg start 168 hrs group,307.88 ± 10.53 g
same,Body weights at surgery [A],[3]; 1 mg/kg start 168 hrs group,277.00 ± 10.41 g

# Reference: patent publication US10064865B2, “Composition comprising phosphodiesterase type 5 inhibitor for inhibiting apoptosis of nerve cells” (ARIBIO INC., priority 2012, dated 2018)
